Reference: patent US10561657B2, “Pyrrolopyrimidine compound” (CENTAURUS BIOPHARMA CO., LTD., priority 2014, dated 2020)
Read-outs that look alike come from different tables or passages of the source.

Tests used:
[1] = target: JAK2 kinase (V617F mutant type, JAK2^V617F) (Homo sapiens (Human), UniProt O60674, V617F); test: HTRF assay for enzymatic activity (IC50), JAK2 V617F mutant type; type: biochemical; details: ATP at Km, 120 min, 23 °C
Experimental: (§1) 1. Assay for Enzymatic Activity (IC50) of Compounds
(§2) A testing platform for kinase activity of JAK2 (wild type and V617F mutant type) was established based on Homogeneous Time-Resolved Fluorescence (HTRF) assay, and the activities of the compounds were tested using the platform. The compounds were subjected to three-fold gradient dilutions with 100% DMSO with a starting concentration of 1 mM (11 dilutions in total). 4 μL of each dilution was added to 96 μL of reaction buffer (50 mM HEPES, pH 7.4, 10 mM MgCl2, 1 mM EGTA, 0.01% Tween-20, 0.005% BAS, 2 mM DTT) and mixed homogeneously. […] The mixture was mixed homogeneously by centrifugation. […] The plate was incubated in the incubator for 1 hr, and then the fluorescence values were read on Envision (available from PerkinElmer). […] The enzymatic activity was representd by a ratio of the two readout at the two emission wavelengths. The enzymatic activity for each compound was tested at 11 concentrations, and IC50 values of the compounds were obtained by calculating the data using GraFit6.0 software (Erithacus Software). 2. Assay for cell proliferation activity (IC50) of compounds

[2] = target: JAK2 kinase (wild type, JAK2^WT) (Homo sapiens (Human), UniProt O60674); test: HTRF assay for enzymatic activity (IC50), JAK2 wild type; type: biochemical; details: ATP at Km, 120 min, 23 °C
Experimental: as §1, §2

HEL (JAK2^V617F) cells = test: Cell proliferation assay (CellTiter-Blue, 72 hrs); type: cell-based; details: Homo sapiens; 72 hrs of treatment
Experimental: In the tests of compounds, HEL cells were plated in a 96-well plate (Corning) at a density of 3000 cells/195 μL per well. The compounds were subjected to three-fold gradient dilutions with a starting concentration of 10 mM (11 dilutions in total). […] 5 μL of the resulting liquid was then added to 195 μL of the cell culture medium (the final concentration in DMSO is 0.1%, v/v). After 72 hrs of treatment, 35 μL of CellTiter-Blue® (available from Promega) was added. The fluorescent signals were detected on Flex Station3 (Molecular Devices) in accordance with the protocols described in the instructions. The IC50 values of the compounds in inhibiting cell proliferation were calculated using GraphPad Prism 5.0.

in vivo = details: male, Sprague-Dawley, rat, plasma, po, 5 mg/kg
Experimental: The rats were allocated with three rats per group, and separately orally administered the suspension of a sample to be tested (5 mg/kg or 15 mg/kg) by single intragastric administration. […] After the animals were narcotized with isoflurane using an anaesthesia machine for small animals, 0.3 mL of whole blood was drawn from fundus venous plexus, and placed in a heparin anticoagulant tube. At 4° C., the sample was centrifuged at 4000 rpm for 5 min, and plasma was transferred to a centrifuge tube and preserved at −80° C. until the analysis was started. The sample in plasma was extracted by the protein precipitation method, and the extract liquid was analyzed by LC/MS/MS.

[3] = 0.5% MC, FDA pharmacology review, cited from earlier work
[4] = rats, 30 mg/kg PO; FDA pharmacology review; cited from earlier work
[5] = dogs, male, FDA pharmacology review, cited from earlier work

Chain of JAK2 kinase (wild type, JAK2^WT) (O60674 whole entry): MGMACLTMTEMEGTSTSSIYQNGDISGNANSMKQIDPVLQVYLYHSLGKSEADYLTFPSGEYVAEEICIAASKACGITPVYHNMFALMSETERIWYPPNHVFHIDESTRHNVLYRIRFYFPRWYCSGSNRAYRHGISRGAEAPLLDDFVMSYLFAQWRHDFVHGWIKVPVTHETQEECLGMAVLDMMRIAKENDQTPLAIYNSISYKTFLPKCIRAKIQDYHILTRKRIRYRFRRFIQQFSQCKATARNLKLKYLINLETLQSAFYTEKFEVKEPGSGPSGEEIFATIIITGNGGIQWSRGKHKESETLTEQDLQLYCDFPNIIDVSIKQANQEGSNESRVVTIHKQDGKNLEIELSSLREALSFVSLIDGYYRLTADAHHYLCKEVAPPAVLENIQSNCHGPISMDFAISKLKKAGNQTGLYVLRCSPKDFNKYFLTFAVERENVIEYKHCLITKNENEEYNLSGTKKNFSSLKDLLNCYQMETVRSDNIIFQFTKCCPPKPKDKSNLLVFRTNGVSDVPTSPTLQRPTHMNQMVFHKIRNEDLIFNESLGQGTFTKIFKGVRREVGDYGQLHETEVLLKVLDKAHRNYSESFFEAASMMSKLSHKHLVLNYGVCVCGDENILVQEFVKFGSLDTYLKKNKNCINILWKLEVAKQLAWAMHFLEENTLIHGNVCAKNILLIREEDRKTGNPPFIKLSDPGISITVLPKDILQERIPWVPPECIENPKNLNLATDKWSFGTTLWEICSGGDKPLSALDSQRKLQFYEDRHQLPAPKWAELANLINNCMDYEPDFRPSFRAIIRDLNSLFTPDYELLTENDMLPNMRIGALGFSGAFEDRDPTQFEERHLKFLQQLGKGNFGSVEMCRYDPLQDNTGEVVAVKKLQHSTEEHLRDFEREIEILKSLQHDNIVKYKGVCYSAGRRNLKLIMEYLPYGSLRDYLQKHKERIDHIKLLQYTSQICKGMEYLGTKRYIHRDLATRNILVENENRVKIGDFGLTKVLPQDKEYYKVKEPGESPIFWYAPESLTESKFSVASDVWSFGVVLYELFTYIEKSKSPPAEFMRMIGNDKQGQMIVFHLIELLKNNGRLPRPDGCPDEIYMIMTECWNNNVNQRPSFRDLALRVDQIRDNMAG
Chain of JAK2 kinase (V617F mutant type, JAK2^V617F) (O60674 whole entry V617F): as the sequence (O60674 whole entry) above, with V617F counted along it

**Q.** For N#CCC(C1CCCC1)n1cc(-c2ncnc3[nH]ccc23)c(N)n1 (centres unmarked) [Example 1, 3-[3-amino-4-(7H-pyrrolo[2,3-d]pyrimidin-4-yl)-1H-pyrazol-1-yl]-3-cyclopentylpropanenitrile], which IC50 [1] is on record?
**A.** The IC50 was under 20 nM.

**Q.** And the IC50 [2]?
**A.** The IC50 was under 20 nM.

**Q.** Which IC50 [1] does the source give for CCNc1nn(C(CC#N)C2CCCC2)cc1-c1ncnc2[nH]ccc12 (centres unmarked) [Example 7, 3-[3-ethylamino-4-(7H-pyrrolo[2,3-d]pyrimidin-4-yl)-1H-pyrazol-1-yl]-3-cyclopentylpropanenitrile] here?
**A.** The IC50 was under 20 nM.

**Q.** And the IC50 (HEL (JAK2^V617F) cells)?
**A.** Its IC50 is under 200 nM.

**Q.** What about the IC50 [2] of the same molecule?
**A.** Its IC50 is under 20 nM.

**Q.** What about the AUC(0-inf) (in vivo) of the same molecule?
**A.** Its AUC(0-inf) is 20 ng·h/mL.

**Q.** What about the Cmax (in vivo) of the same molecule?
**A.** The Cmax was 13.5 ng/mL.

**Q.** What about the Tmax (in vivo) of the same molecule?
**A.** Its Tmax is 19.8 min.

**Q.** What about the half-life (in vivo) of the same molecule?
**A.** Its half-life is 30 min.

**Q.** For N#CC[C@H](C1CCCC1)n1cc(-c2ncnc3[nH]ccc23)cn1 [Ruxolitinib Phosphate], which “AUCINF—obs” value ([3]; female rats, oral 15 mg/kg) is on record?
**A.** The value was 336 ng·h/mL.

**Q.** What about the “Cmax” value ([3]; female rats, oral 15 mg/kg) of the same molecule?
**A.** The value was 267 ng/mL.

**Q.** What about the “T1/2” value ([3]; female rats, oral 15 mg/kg) of the same molecule?
**A.** The value was 119 min.

**Q.** What about the “Tmax” value ([3]; female rats, oral 15 mg/kg) of the same molecule?
**A.** The value was 30 min.

**Q.** And the “AUCINF—obs” value ([3]; male rats, oral 5 mg/kg)?
**A.** Its value is 3.33 ng·h/mL.

**Q.** And the “Cmax” value ([3]; male rats, oral 5 mg/kg)?
**A.** The value was 4.69 ng/mL.

**Q.** And the “Tmax” value ([3]; male rats, oral 5 mg/kg)?
**A.** Its value is 30 min.

**Q.** With N#CC[C@H](C1CCCC1)n1cc(-c2ncnc3[nH]ccc23)cn1 [Ruxolitinib] as the molecule, how does the AUCINFobs [4] read?
**A.** Its AUCINFobs is 1345 ng·h/mL.

**Q.** What about the Cmax [4] of the same molecule?
**A.** The Cmax was 1143 ng/mL.

**Q.** What about the Tmax [4] of the same molecule?
**A.** Its Tmax is 30 min.

**Q.** And the t1/2 [4]?
**A.** The t1/2 was 73.2 min.

**Q.** And the “AUCINF—obs” value ([5]; IV 5 mg/kg)?
**A.** Its value is 13776 ng·h/mL.

**Q.** And the Cl_obs ([5]; IV 5 mg/kg)?
**A.** Its Cl_obs is 8 mL/min/kg.

**Q.** What about the Vss_obs ([5]; IV 5 mg/kg) of the same molecule?
**A.** The Vss_obs was 1.1 L/kg.

**Q.** What about the t1/2 ([5]; IV 5 mg/kg) of the same molecule?
**A.** The t1/2 was 150 min.

**Q.** And the “AUCINF—obs” value ([5]; PO 10 mg/kg)?
**A.** The value was 15716 ng·h/mL.

**Q.** What about the Cmax ([5]; PO 10 mg/kg) of the same molecule?
**A.** Its Cmax is 3519 ng/mL.

**Q.** What about the F ([5]; PO 10 mg/kg) of the same molecule?
**A.** Its F is 57%.

**Q.** And the Tmax ([5]; PO 10 mg/kg)?
**A.** The Tmax was 120 min.

**Q.** What about the t1/2 ([5]; PO 10 mg/kg) of the same molecule?
**A.** The t1/2 was 132 min.
